The source of these data is PMC8099175, “SARS-CoV-2 M^pro inhibitors with antiviral activity in a transgenic mouse model” (Science (New York, N.y.), 2021).

Read-outs that look alike come from different tables or passages of the source.

In data set [1] the test system is SARS-CoV-2–infected Vero E6 cells. In words: cell protection assay (CCK8). In kind it is cell-based. As to conditions: for EC50: Vero E6 cells, MOI 0.1, 3 dpi, CCK8.
Data set [2] relates to SARS-CoV-2 in HPAEpiC cells. In words: RT-qPCR virus replication assay in HPAEpiC cells. It is filed as cell-based. The note with it: for EC90: Severe acute respiratory syndrome coronavirus 2.
The nature of data set [3]: acute toxicity experiment in rats. The note with it: i.v. 40 mg/kg, i.p. 250 mg/kg, or p.o. 500 mg/kg. In kind it is in vivo.
A short description of data set [4]: PK experiments in Sprague-Dawley rats. The note with it: rat.
Excerpt: To identify which of the six compounds is suitable for in vivo antiviral studies, we conducted PK experiments in Sprague-Dawley rats.
In the next data set the test system is SARS-CoV-2. In words: hACE2 transgenic mouse model of SARS-CoV-2 infection. In kind it is in vivo, hACE2 transgenic mice. The note with it: for viral RNA loads in the lung tissues: 2 × 10^6 TCID50, 50 mg/kg, 3 and 5 dpi; for viral loads in the lung tissues: 5 dpi; for lung histopathology / neutrophils and macrophages in the lungs vs control mice: 5 × 10^6 TCID50, 3 dpi; for expression levels of IFN-β and CXCL10 in the lungs: 5 × 10^6 TCID50, lung tissue homogenate; for lung viral loads and lung lesions: oral or intraperitoneal treatment, summary statement; for abnormal behaviors or body weight loss: pilot study, 2 × 10^6 TCID50, MI-09 50 mg/kg p.o. bid or i.p. qd, MI-30 50 mg/kg i.p. qd, 6-day period.

Data set [5] is described as follows: repeated dose toxicity study in rats. In kind it is in vivo. As to conditions: i.v. 6 and 18 mg kg^–1 day^–1, i.p. 100 and 200 mg kg^–1 day^–1, or p.o. 100 and 200 mg/kg twice daily, 7 consecutive days.
The mark [6] stands for this setting: Severe acute respiratory syndrome coronavirus 2, Vero C1008.
Setting [7] is: Severe acute respiratory syndrome coronavirus 2, read-out: EC50, SARS-CoV-2 virus replication (RT-qPCR).
[8] abbreviates: Sprague-Dawley, in vivo, ip, 20 mg/kg.
Where [9] appears, read: Sprague-Dawley, in vivo, iv, 10 mg/kg.
The mark [10] stands for this setting: Sprague-Dawley, in vivo, po, 20 mg/kg.
Where [11] appears, read: 2 × 10^6 TCID50, 50 mg/kg (MI-09 p.o. bid or i.p. qd; MI-30 i.p. qd), 1 dpi.
[12] abbreviates: 5 × 10^6 TCID50, 100 mg/kg i.p. or p.o., 1 dpi.
Setting [13] is: 5 × 10^6 TCID50, 100 mg/kg i.p. or p.o., 3 dpi.
[14] abbreviates: 5 × 10^6 TCID50, 100 mg/kg i.p. or p.o.

For the molecule `CC(C)C[C@H](NC(=O)OCc1ccccc1)C(=O)N[C@@H](CC1CCNC1=O)C(O)S(=O)(=O)O` (some centres unmarked) [GC376, reference compound], the half-maximal effective concentration (EC50) in data set [1] came to 1460 nM; in data set [2] (HPAEpiC cells, MOI 0.01, 2 dpi, viral RNA copies in supernatant, read-out: EC50, SARS-CoV-2 virus replication (RT-qPCR)), 153 nM.

Regarding `CC1(C)[C@@H]2[C@@H](C(=O)N[C@H](C=O)C[C@@H]3CCNC3=O)N(C(=O)COc3ccc(OC(F)(F)F)cc3)C[C@@H]21` [MI-09], the results for the EC90 in data set [1] (setting [6]) and in data set [2] were 3620 nM and 47.9 nM, respectively. Moreover, the figures for the EC50 in data set [1] (setting [6]) and in data set [2] (setting [7]) were 860 nM and 1.2 nM, respectively. Moreover, the “mortality, acute toxicity” value in data set [3] is given as “no rats died”. In addition, the AUC was 11600 ng·h/mL in data set [4] (setting [8]), 7430 ng·h/mL in data set [4] (setting [9]) and 1660 ng·h/mL in data set [4] (setting [10]). In data set [4] (setting [10]), this molecule had a bioavailability of 11.2%. In addition, the “mean viral RNA loads in the lung tissues vs control” value (from here on “mean viral RNA loads … vs control”) in the data set with SARS-CoV-2 (setting [11]) is given as “significantly (P < 0.05, Student’s t test) lower”; with SARS-CoV-2 (setting [12]) it was “slightly lower”; with SARS-CoV-2 (setting [13]), “significantly lower”. Moreover, the “viral RNA loads in the lung tissues” value in the data set with SARS-CoV-2 was “almost undetectable”. Also, the “viral loads in the lung tissues” value in the data set on SARS-CoV-2 (setting [14]) was “undetectable”. For the same molecule, the lung histopathology result in the data set with SARS-CoV-2 is “slight alveolar septal thickening and mild inflammatory cell infiltration”. The “neutrophils and macrophages in the lungs vs control mice” value in the data set with SARS-CoV-2 is given as “fewer”. In addition, the “expression levels of IFN-β and CXCL10 in the lungs” value with SARS-CoV-2 (3 dpi) was “reduced”. The “lung viral loads and lung lesions” value in the data set on SARS-CoV-2 is given as “significantly reduced”. Moreover, the “abnormal behaviors or body weight loss” value in the data set with SARS-CoV-2 is reported as “no abnormal behaviors or body weight loss were observed”. The “toxicity, repeated dose” value in data set [5] is reported as “did not result in noticeable toxicity”.

For the molecule `O=C[C@H](C[C@@H]1CCNC1=O)NC(=O)[C@@H]1[C@H]2CCC[C@H]2CN1C(=O)COc1ccc(Cl)cc1Cl` [MI-30], in data set [1] (setting [6]), the concentration for an effect of 90% (EC90) was 2120 nM and the EC50 came out at 540 nM. Also, the “mortality, acute toxicity” value in data set [3] is listed as “no rats died”. The molecule also yielded an EC90 in data set [2] of 58.8 nM. Also, in data set [2] (setting [7]), the EC50 is 1.1 nM. In data set [4] (setting [8]), this molecule gave an AUC of 14900 ng·h/mL and a half-life of 3.88 h. Moreover, the area under the curve (AUC) in data set [4] (setting [9]) amounted to 9770 ng·h/mL. For the same molecule, in data set [4] (setting [10]), the AUC turned out to be 2840 ng·h/mL and the bioavailability was found to be 14.6%. Also, the “clearance rate (CL)” value in data set [4] (i.p. administration) turned out to be 17.10 ml min^–1 kg^–1. In addition, the “mean viral RNA loads … vs control” value with SARS-CoV-2 (setting [11]) is recorded as “significantly (P < 0.05, Student’s t test) lower”. Further, in the data set with SARS-CoV-2, the “viral RNA loads in the lung tissues” value is “almost undetectable”; the lung histopathology entry was “slight alveolar septal thickening and mild inflammatory cell infiltration”; the “neutrophils and macrophages in the lungs vs control mice” value is “fewer”; the “lung viral loads and lung lesions” value is on record as “significantly reduced”. In the data set on SARS-CoV-2, the “abnormal behaviors or body weight loss” value is recorded as “no abnormal behaviors or body weight loss were observed”. Moreover, the “mean viral RNA loads … vs control” value with SARS-CoV-2 (setting [12]) is given as “slightly lower”. In addition, the “mean viral RNA loads … vs control” value in the data set with SARS-CoV-2 (setting [13]) was “significantly lower”. Besides, the “viral loads in the lung tissues” value in the data set on SARS-CoV-2 (setting [14]) is reported as “undetectable”. Besides, the “expression levels of IFN-β and CXCL10 in the lungs” value in the data set on SARS-CoV-2 (3 dpi) is “reduced”. In data set [5], the “toxicity, repeated dose” value was “did not result in noticeable toxicity”.
